Columns and labels:
TiRP tumor = assay: TiRP melanoma model with adoptive cell transfer of activated P1A-specific CD8+ T cells; assay type: in vivo, mouse; settings: alprenolol 5 mg/kg i.p. daily with ACT
Source text: TiRP mice: TiRP mice have been created by crossing Ink4a/Arf^flox/flox mice with mice carrying a transgenic construct controlled by the tyrosinase promoter and driving the expression of H-Ras^12V and Trap1a which encodes a MAGE-type tumor antigen P1A; the promoter is separated from the coding region by a stop cassette made of a floxed self-deleting CreER (Huijbers et al., 2006, Cancer Res 66, 3278-3286). Those mice were backcrossed to a B10.D2 background and bred to homozygosity. TCRP1A mice heterozygous for the H-2Ld/P1A35-43-specific TCR transgene were kept on the B10.D2; Rag1^−/− background (Shanker et al., 2004, J Immunol 172, 5069-5077). All mice used in this study were produced under specific pathogen free (SPF) conditions at the animal facility of the Ludwig Institute for Cancer Research. All the rules concerning animal welfare have been respected according to the 2010/63/EU Directive. All procedures were performed with the approval of the local Animal Ethical Committee, with reference 2015/UCL/MD/15.
A fresh solution of 40H-Tamoxifen was prepared by dissolving 40H-Tamoxifen (Imaginechem) in 100% ethanol and mineral oil (ratio 1:9) followed by 30-min sonication, and injected subcutaneously (2 mg/200 μL per mouse) in the neck area of gender-matched 7 weeks old TiRP mice. Tumor appearance was monitored daily and tumors were measured three times/week. Tumor volume (in mm^3) was calculated by the following formula: Volume=width^2×length/2. Tumor-bearing TiRP mice were randomized based on the tumor size when average volume was 400 mm^3, 500 mm^3 or 1000 mm^3 as indicated.
(§1) T cells were incubated with guanabenz (10, 20, or 40 μM) for 16 h to 24 h as indicated. Mice received a daily intra-peritoneal injection of guanabenz (5 mg/kg) or vehicle (PBS) from the day of randomization (and the day of ACT when applicable) until the day of sacrifice.
For the adoptive cell transfer (ACT), P1A-specific (TCRP1A) CD8^+ T cells were isolated from spleens and lymph nodes of TCRP1A mice as described hereinabove, and stimulated in vitro by co-culture with irradiated (10.000 rads) L1210-P1A-B7.1 cells (Gajewski et al., 1995, J Immunol 154, 5637-5648) at 1:2 ratio (0.5×10^5 CD8^+ T cells and 10^5 L1210-P1A-B7.1 cells per well in 48-well plates) in IMDM (GIBCO) containing 10% fetal bovine serum supplemented with L-arginine (0.55 mM, Merck), L-asparagine (0.24 mM, Merck), glutamine (1.5 mM, Merck), betamercaptoethanol (50 μM, Sigma), 50 UmL^−1 penicillin and […] (Life Technologies). Four days later, TCRP1A CD8^+ T cells were purified on a Lymphoprep gradient (StemCell) and 10^7 living cells were injected intravenously in 200 μL PBS in TiRP-tumor bearing mice on the day of randomization.
Mice received a daily intra-peritoneal injection of alprenolol (5 mg/kg) or vehicle (PBS) from the day of ACT until the day of sacrifice.
T cells were incubated with sunitinib (0.1, 0.3, 0.8, 2.5 or 4 μM) for 16 h as indicated. Mice received a daily dose of sunitinib (20 mg/kg) or vehicle (PBS) by oral gavage from the day of ACT until the day of sacrifice.

[1] = tested on: Mouse TCRP1A CD8+ T cells; assay: CD107 cytotoxicity assay (degranulation assay), mouse T cells; assay type: cell-based; settings: alprenolol 5 μM or 20 μM, 16 hours, vs control (PBS); FIG. 11A
Description: Mouse TCRP1A CD8^+ T cells: P1A-specific (TCRP1A) CD8^+ T cells were isolated from spleens and lymph nodes of TCRP1A mice using anti-mouse CD8a (Ly-2) MicroBeads (Miltenyi Biotec).
CD107 cytotoxicity assay (Degranulation assay): TCRP1A CD8^+ T cells were plated at 50,000 cells per well in a 96 U plate with different concentrations of guanabenz and incubated at 37° C. overnight prior to their use in the assay on the next day. On the day of the assay, the culture supernatant was removed from the cells and the cells were washed once with complete medium to remove the drug. The target cells L1210-P1A-B7.1 were added to the wells at a ratio of 1:1. Control wells containing either only T cells or target cells were also included for each plate. CD107a-APC was added to each well at the same time as addition of the target cells. The plate was then incubated at 37° C. for 90 minutes. At the end of the incubation period the cells were harvested and washed once with PBS. They were stained with anti-mouse CD8-Bv421 antibody for 15 minutes. The cells were then washed and resuspended in PBS and analyzed using FACS Fortessa flow cytometer. Human CD8^+ T cell degranulation was evaluated in a similar way. To induce CD8^+ T cell degranulation, T2 cells loaded with synthetic WT1126-134 peptide (10^6 T2 cells were incubated for 1 hour in 200 μL Optimem medium with 100 μmol/L synthetic peptide at 37° C.) were used as target cells.
as §1
CD107 cytotoxicity assay (Degranulation assay): the assay was carried out as described hereinabove (see Example 1) with different 20 μM guanabenz or different concentrations of alprenolol or sunitinib, as indicated.
T cells were incubated with 20 μM guanabenz for 16 h as indicated.
T cells were incubated with alprenolol (5 or 20 μM) for 16 h as indicated. […]

With `C=CCc1ccccc1OCC(O)CNC(C)C` (stereo not drawn) [alprenolol] the “tumor infiltration of CD8+ T cells (tetramer+ CD8+ T cells among total CD45+ cells)” value (TiRP tumor; 7 days after ACT, FIG. 11C) was “not increased”, the tumor growth (TiRP tumor; day 0 to day 10, vs ACT alone, FIG. 11B) was “not significantly decreased” and the “T cell degranulation (FACS detection of CD107a)” value [1] was “did no significantly increase”.
